Experimental data: patent US20210163453A1, “DERIVATIVES OF PAPAVERINE THAT ARE EFFECTIVE HYPOXIC TUMOR RADIOSENSITIZERS” (Ohio State Innovation Foundation, priority 2018, published 2021)
“Also recorded” adds a separate entry of the source.

What was measured:
mitochondrial complex 1 = assay: Seahorse OCR inhibition of PPV derivatives, normalized to PPV; assay type: cell-based; conditions: Seahorse; for Inhibitory activity OCR % of PPV: OCR inhibition at 10 μM concentration, normalized to PPV
Method: FIGS. 7A-7D show OCR and cellular toxicity data. […]. Bars represent mean OCR and PDE10 inhibitory activities from at least 5 (OCR) or 3 (PDE) replicates. All experiments were repeated at least twice. […] Values are mean+−SEM.
(§1) Seahorse analysis of the OCR. Oxygen consumption rate (OCR) was measured using Seahorse XF96 Flux Analyzer (Agilent Technologies). The cells were seeded to attach overnight, wells were washed with pre-warmed XF Calibrant (Agilent Technologies) and the replaced with unbuffered Assay Medium (pH 7.4, 5 mM glucose, 1 mM L-glutamine). The plates were incubated at 37° C. in a CO2-free incubator for 2 hours prior to assay. For succinate rescue assay, cells were permeabilized using XF Plasma Membrane Permeabilizer Reagent (XF PMP, Agilent Technologies) according to the manufacturer's instructions. The OCR rate was measured in 1× Mitochondrial Assay Solution (MAS) (70 mM sucrose, 220 mM mannitol, 10 mM KH2PO4, 5 mM MgCl2, 2 mM Hepes, 0.6% (w/v) fatty acid-free BSA and 1 mM EGTA; pH 7.4). After baseline oxygenation was established, 1 μM rotenone or 10 μM PPV was injected at time A, followed by 5 mM succinate at time B. Error bars represent standard deviation. For the washout experiment, EO771 cells were seeded overnight, then treated with 10 μM PPV or 1 μM rotenone 3 hours prior to OCR measurement. Media was replaced 1 and 2 hours before measurement and OCR reported.
Because PPV's effect on mitochondrial function is independent of cAMP levels it was reasoned that there are two activities in PPV, one inhibiting complex 1 and one inhibiting PDE10A that may reside in different parts of the molecule. The structure activity relationship of PPV relative to two assays was assessed: inhibition of cellular OCR by Seahorse, and inhibition of PDE10A by purified enzyme activity in multiwell plate (PDE10A activity assay kit, BPS Bioscience). Because PPV can compete with rotenone as complex 1 inhibitors, it was reasoned that they may be binding the same site and therefore the structures would be similar relative to the mitochondrial binding target. […] Because the top was a planar structure similar to that of rotenone, and they compete with each other for the same binding pocket on complex 1 (FIG. 10) the lower portion of the molecule and how it may resemble rotenone were investigated in more detail. It was established that flexible linkage was preferred for mitochondrial activity and bulky adducts to the lower benzene ring may block it (FIG. 7C). […] These lead compounds were synthesized from commercial precursors and purified on silica gel column. Structures were confirmed by ^1H NMR and found to be >95% pure by HPLC.

PDE10A = biological target: T1, PDE10A (Homo sapiens, UniProt Q9Y233); assay: PDE10A enzymatic assay (PDE10A activity assay kit, BPS Bioscience); assay type: biochemical; conditions: for Inhibitory activity PDE10A % of PPV: PDE10A inhibition at 1 μM, normalized to PPV
T1 construct: purchased BPS Bioscience
Method: FIGS. 7A-7D show OCR and cellular toxicity data. […] Bars represent mean OCR and PDE10 inhibitory activities from at least 5 (OCR) or 3 (PDE) replicates. All experiments were repeated at least twice. […] Values are mean+−SEM. […]
The structure activity relationship of PPV relative to two assays was assessed: inhibition of cellular OCR by Seahorse, and inhibition of PDE10A by purified enzyme activity in multiwell plate (PDE10A activity assay kit, BPS Bioscience). […] These lead compounds were synthesized from commercial precursors and purified on silica gel column.

[1] = test system: oxygen consumption (mitochondrial function); assay: Seahorse XF analysis of oxygen consumption in vitro, cell line not stated; assay type: cell-based
Method: as §1

A549 cells = assay: Seahorse OCR in A549 cells (dose response, IC50, washout); assay type: cell-based, Human; conditions: 1 μM rotenone, media replaced
[2] = test system: A549 NDUFV1 KO NDI1 cells; assay type: cell-based, Human; conditions: 10 μM papaverine or 1 μM rotenone

T1 sequence (Q9Y233 267-1055): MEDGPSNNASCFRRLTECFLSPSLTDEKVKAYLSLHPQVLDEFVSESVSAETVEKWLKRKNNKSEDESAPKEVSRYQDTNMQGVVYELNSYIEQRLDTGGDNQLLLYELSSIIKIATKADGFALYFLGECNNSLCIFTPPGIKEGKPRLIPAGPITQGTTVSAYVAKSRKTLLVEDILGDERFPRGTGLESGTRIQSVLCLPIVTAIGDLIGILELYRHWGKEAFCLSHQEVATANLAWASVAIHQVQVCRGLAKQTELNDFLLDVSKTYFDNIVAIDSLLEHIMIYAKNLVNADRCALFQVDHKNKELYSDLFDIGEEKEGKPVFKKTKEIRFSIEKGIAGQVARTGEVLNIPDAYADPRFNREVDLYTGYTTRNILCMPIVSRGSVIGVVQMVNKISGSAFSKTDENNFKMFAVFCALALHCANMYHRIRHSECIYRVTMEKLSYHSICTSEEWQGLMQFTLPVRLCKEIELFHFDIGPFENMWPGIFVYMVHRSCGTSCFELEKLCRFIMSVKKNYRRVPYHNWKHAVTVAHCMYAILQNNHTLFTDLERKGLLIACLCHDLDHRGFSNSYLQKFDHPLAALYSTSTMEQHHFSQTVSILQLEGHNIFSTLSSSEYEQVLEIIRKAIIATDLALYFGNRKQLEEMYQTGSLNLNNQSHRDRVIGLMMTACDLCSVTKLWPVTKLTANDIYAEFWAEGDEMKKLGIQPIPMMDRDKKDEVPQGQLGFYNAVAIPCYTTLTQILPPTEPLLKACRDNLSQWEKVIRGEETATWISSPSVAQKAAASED

Row | Structure (SMILES) | Inhibitory activity OCR % of PPV (mitochondrial complex 1) | Inhibitory activity PDE10A % of PPV (PDE10A) | also measured
1 | COc1cc2ccnc(C(O)c3ccc4ccccc4c3)c2cc1OC (centres unmarked) | 29.26 % of PPV | 70.84 % of PPV | –
2 | COc1cc2ccnc(Cc3cc(C)c(O)c(C)c3)c2cc1OC | 5.86 % of PPV | 85.02 % of PPV | –
3 | COc1cc2ccnc(C(=O)c3ccc4ccccc4c3)c2cc1OC | 4.34 % of PPV | 0 % of PPV | –
4 | C=C(C)COc1c(C)cc(Cc2nccc3cc(OC)c(OC)cc23)cc1C | 74.81 % of PPV | 59.69 % of PPV | –
5 | COc1cc2ccnc(C(O)c3ccc4c(c3)OCO4)c2cc1OC (centres unmarked) | 12.96 % of PPV | 67.90 % of PPV | –
6 | COc1cc2ccnc(Cc3ccc(C)c(C)c3)c2cc1OC | 17.43 % of PPV | – | –
7 | C=C(C)COc1c(C)cc(C(O)c2nccc3cc(OC)c(OC)cc23)cc1C (centres unmarked) | 84.42 % of PPV | 73.33 % of PPV | –
8 | COc1cc2ccnc(Cc3cc(C)c(OC)c(C)c3)c2cc1OC | 91.18 % of PPV | 64.65 % of PPV | –
9 | COc1cc2ccnc(C(O)c3cccc4ccccc34)c2cc1OC (centres unmarked) | 18 % of PPV | 24.24 % of PPV | –
10 | COc1cc2ccnc(C(=O)c3cc(OC)c(OC)c(OC)c3)c2cc1OC | 13.63 % of PPV | 63.39 % of PPV | –
11 | COc1cc2ccnc(C(O)c3cc(C)c(OC)c(C)c3)c2cc1OC (centres unmarked) | 10.35 % of PPV | 29.18 % of PPV | –
12 | COc1cc2ccnc(C(=O)c3ccc4c(c3)OCO4)c2cc1OC | 5.55 % of PPV | 51.12 % of PPV | –
13 | Cc1cccc(CN2CCN(C(c3ccccc3)c3ccc(Cl)cc3)CC2)c1 (centres unmarked) [meclizine] | – | – | inhibition of oxygen consumption / mitochondrial function in vitro [1]: effective at inhibiting oxygen consumption
14 | COc1cc2ccnc(Cc3cc(OC)c(OC)c(OC)c3)c2cc1OC | 34.09 % of PPV | 37.37 % of PPV | –
15 | COc1cc2ccnc(C(=O)c3cc(C)c(OC)c(C)c3)c2cc1OC | 0 % of PPV | 50.92 % of PPV | –
16 | COc1ccc(Cc2nccc3cc(OC)c(OC)cc23)cc1 | 36.36 % of PPV | 79.93 % of PPV | –
17 | COc1cc2ccnc(C(=O)c3ccc(C)c(C)c3)c2cc1OC | 9.64 % of PPV | – | –
18 | COc1ccccc1OCC(O)CN1CCN(CC(=O)Nc2c(C)cccc2C)CC1 (centres unmarked) [ranolazine] | – | – | inhibition of oxygen consumption / mitochondrial function in vitro [1]: effective at inhibiting oxygen consumption
19 | COc1ccc(C(=O)c2nccc3cc(OC)c(OC)cc23)cc1 | 29.55 % of PPV | 65.88 % of PPV | –
20 | COc1ccc(C(O)c2nccc3cc(OC)c(OC)cc23)cc1 (centres unmarked) | 70.45 % of PPV | 35.44 % of PPV | –
21 | COc1cc2c(cc1OC)C(Cc1cc(C)c(OC)c(C)c1)=NCC2 | 14.81 % of PPV | 37.27 % of PPV | –
22 | COc1ccc(-c2nccc3cc(OC)c(OC)cc23)cc1OC | 3.64 % of PPV | 69.55 % of PPV | –
23 | [H]/N=C(/N)N/C(=N/[H])NCCc1ccccc1 [phenformin] | – | – | inhibition of oxygen consumption / mitochondrial function in vitro [1]: effective at inhibiting oxygen consumption

Row | Structure (SMILES) | Inhibitory activity OCR % of PPV (mitochondrial complex 1) | Inhibitory activity PDE10A % of PPV (PDE10A) | also measured
24 | COc1cc2ccnc(Cc3ccc4ccccc4c3)c2cc1OC | 35.99 % of PPV | 100 % of PPV | –
25 | COc1cc2ccnc(C(=O)c3cccc4ccccc34)c2cc1OC | 31.91 % of PPV | 0 % of PPV | –
26 | COc1ccc(CCc2nccc3cc(OC)c(OC)cc23)cc1OC | 5.94 % of PPV | 20.16 % of PPV | –
27 | COc1cc2ccncc2cc1OC [DMIQ, reference compound] | 0 % of PPV | 0 % of PPV | activity in cellular OCR assay (mitochondrial complex 1): inactive; activity in PDE10A assay (PDE10A; purified enzyme): inactive
28 | COc1cc2ccnc(C(O)c3cc(OC)c(OC)c(OC)c3)c2cc1OC (centres unmarked) | 34.09 % of PPV | 72.86 % of PPV | –
29 | COc1cc2ccnc(Cc3ccc4c(c3)OCO4)c2cc1OC | 11.11 % of PPV | 69.54 % of PPV | –
30 | COc1cc2c(cc1OC)C(Cc1cc(C)cc(C)c1)=NCC2 | 30.09 % of PPV | 40.00 % of PPV | –
31 | COc1cc2ccnc(Cc3cc(C(F)(F)F)cc(C(F)(F)F)c3)c2cc1OC | 33.4 % of PPV | 10.28 % of PPV | –
32 | COc1cc2ccnc(C(=O)c3cc(C(F)(F)F)cc(C(F)(F)F)c3)c2cc1OC | 0 % of PPV | 17.69 % of PPV | –
33 | COc1cc2c(cc1OC)C(Cc1ccc3c(c1)OCO3)=NCC2 | 5.55 % of PPV | 12.77 % of PPV | –
34 | C=C(C)COc1c(C)cc(C(=O)c2nccc3cc(OC)c(OC)cc23)cc1C | 15.51 % of PPV | 74.38 % of PPV | –
35 | COc1ccc(OCc2nccc3cc(OC)c(OC)cc23)cc1OC | 72.05 % of PPV | 17.18 % of PPV | –
36 | COc1cc2ccnc(C(O)c3cc(C(F)(F)F)cc(C(F)(F)F)c3)c2cc1OC (centres unmarked) | 48.27 % of PPV | 16.58 % of PPV | –
37 | COc1cc2ccnc(C(=O)c3cc(C)cc(C)c3)c2cc1OC | 9.26 % of PPV | 30.52 % of PPV | –
38 | COc1cc2ccnc(C(O)c3cc(C)cc(C)c3)c2cc1OC (centres unmarked) | 23.40 % of PPV | 0 % of PPV | –
39 | COc1cc2ccnc(COc3cccc4ccccc34)c2cc1OC | 14.19 % of PPV | – | –
40 | COc1cc2ccnc(C(O)c3ccc(C)c(C)c3)c2cc1OC (centres unmarked) | 22.69 % of PPV | – | –
41 | CN(C)C(=N)N=C(N)N [Metformin] | – | – | inhibition of oxygen consumption / mitochondrial function in vitro [1]: effective at inhibiting oxygen consumption
42 | C=C(C)[C@H]1Cc2c(ccc3c2O[C@@H]2COc4cc(OC)c(OC)cc4[C@@H]2C3=O)O1 [rotenone] | 193 % of PPV | 0 % of PPV | reversibility of OCR inhibition in washout (A549 cells): no restoration in 3 hours; also recorded: irreversible inhibitor; response of mitochondria (OCR) to drug [2]: resistant
43 | COc1cc2ccnc(C(O)c3ccccc3)c2cc1OC (centres unmarked) | 12.07 % of PPV | 23.60 % of PPV | –
44 | COc1cc2ccnc(C(=O)c3ccccc3)c2cc1OC | 0 % of PPV | 26.28 % of PPV | –
45 | COc1cc2ccnc(Cc3cc(C)c(OCC(C)C)c(C)c3)c2cc1OC | 72.88 % of PPV | 29.13 % of PPV | –
